# Data reported in ChEMBL document CHEMBL4020825, “Optimization of Potent and Selective Tricyclic Indole Diazepinone Myeloid Cell Leukemia-1 Inhibitors Using Structure-Based Design” (J Med Chem, 2018).
# Values joined by “and” are separate entries in the source; they are usually repeats but may differ in a detail not shown here. Equal values may be shown once.
# Experiments:
# physchem = conditions: PAMPA
# Description: Passive permeability of the compound by PAMPA
# Bcl-2-like protein 1 = Bcl-2-like protein 1 (Homo sapiens, UniProt Q07817)
# Description: Inhibition of FITC-Bak-BH3 binding to Bcl-XL (unknown origin) after 1.5 hrs by fluorescence polarization assay
# NCI-H929 [1] = experiment: cells; conditions: Homo sapiens, NCI-H929, 72 h
# in vitro = conditions: human, K562 cells
# [2] = target: Apoptosis regulator Bcl-2 (Homo sapiens, UniProt P10415)
# Sequence of Apoptosis regulator Bcl-2 (P10415 whole entry): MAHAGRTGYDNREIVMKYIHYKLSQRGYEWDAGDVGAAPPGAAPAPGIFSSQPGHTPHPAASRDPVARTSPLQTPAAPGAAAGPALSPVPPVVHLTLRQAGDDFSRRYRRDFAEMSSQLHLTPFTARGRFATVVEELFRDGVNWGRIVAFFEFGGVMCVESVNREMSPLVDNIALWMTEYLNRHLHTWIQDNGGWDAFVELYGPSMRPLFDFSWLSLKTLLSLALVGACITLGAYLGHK
# Description: Inhibition of FITC-Bak-BH3 binding to Bcl2 (unknown origin) after 1.5 hrs by fluorescence polarization assay
# NCI-H929 [3] = test system: NCI-H929
# MV4-11 = experiment: cells; conditions: Homo sapiens, MV4-11, 72 h
# cells [4] = conditions: Homo sapiens, ALMC1, 72 h
# [5] = target: Induced myeloid leukemia cell differentiation protein Mcl-1 (Homo sapiens, UniProt Q07820)
# Sequence of Induced myeloid leukemia cell differentiation protein Mcl-1 (Q07820 whole entry): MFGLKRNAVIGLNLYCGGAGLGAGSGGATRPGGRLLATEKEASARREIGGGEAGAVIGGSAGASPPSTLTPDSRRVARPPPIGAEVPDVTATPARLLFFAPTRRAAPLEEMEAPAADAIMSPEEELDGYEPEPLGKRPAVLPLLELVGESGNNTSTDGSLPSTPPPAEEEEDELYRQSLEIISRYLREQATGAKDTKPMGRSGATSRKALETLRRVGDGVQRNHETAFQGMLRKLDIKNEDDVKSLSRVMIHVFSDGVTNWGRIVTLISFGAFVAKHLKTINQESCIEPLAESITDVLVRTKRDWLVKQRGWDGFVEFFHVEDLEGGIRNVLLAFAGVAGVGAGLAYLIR
# Description: Inhibition of FITC-Bak-BH3/FITC-Bim-BH3 binding to MCL1 (172 to 327 residues) (unknown origin) expressed in Escherichia coli BL21 CodonPlus (DE3) RIL after 1.5 hrs by fluorescence polarization assay
# cells [6] = conditions: Homo sapiens, ALMC2, 72 h
# OPM-2 = experiment: cells; conditions: Homo sapiens, OPM-2, 72 h
# Sequence of Bcl-2-like protein 1 (Q07817 whole entry): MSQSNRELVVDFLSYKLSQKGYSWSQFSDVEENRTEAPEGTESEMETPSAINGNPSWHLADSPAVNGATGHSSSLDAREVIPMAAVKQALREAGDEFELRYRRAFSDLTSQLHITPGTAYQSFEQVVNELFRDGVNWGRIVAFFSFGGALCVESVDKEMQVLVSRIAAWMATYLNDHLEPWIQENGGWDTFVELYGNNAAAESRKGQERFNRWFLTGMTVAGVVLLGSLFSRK
Structure (SMILES),Papp (physchem),Ki (Bcl-2-like protein 1),GI50 (NCI-H929 [1]),GI50 at 72 h (in vitro),Ki [2],also measured
Cc1cc(OCCCc2c3n(c4c(-c5c(C)nn(C)c5C)c(Cl)ccc24)CCCN(c2cccc(C(=O)O)c2)C3=O)cc(C)c1Cl,307 ×10⁻⁶ cm/s,,,,,
Cc1cc(OCCCc2c(C(=O)NCc3cc(C(=O)O)ccn3)[nH]c3c(-c4c(C)nn(C)c4C)cccc23)cc(C)c1Cl,< 1.2 ×10⁻⁶ cm/s,,,,,
Cc1cc(OCCCc2c(C(=O)Nc3cncc(C(=O)O)c3)[nH]c3c(-c4c(C)nn(C)c4C)c(Cl)ccc23)cc(C)c1Cl,< 1 ×10⁻⁶ cm/s,,,,,
Cc1cc(OCCCc2c3n(c4c(-c5c(C)nn(C)c5C)c(Cl)ccc24)CCCN(c2cn(C)c4c(C(=O)O)cccc24)C3=O)cc(C)c1Cl,,21 µM,1 µM,> 9.2 µM,0.31 µM,
Cc1cc(OCCCc2c3n(c4c(-c5c(C)nn(C)c5C)c(Cl)ccc24)CCCN(c2cc(C(=O)O)cc4c2OCO4)C3=O)cc(C)c1Cl,63 ×10⁻⁶ cm/s,> 36 µM,2.3 µM,> 12.5 µM,0.55 µM,
Cc1cc(OCCCc2c3n(c4c(-c5c(C)nn(C)c5C)c(Cl)ccc24)CCCN(c2cc(C(=O)O)cc4ccn(C)c24)C3=O)cc(C)c1Cl,,> 36 µM,6.1 µM,> 12.5 µM,0.52 µM,
Cc1cc(OCCCc2c(C(=O)Nc3ccc(C(=O)O)o3)[nH]c3c(-c4c(C)nn(C)c4C)c(Cl)ccc23)cc(C)c1Cl,2.3 ×10⁻⁶ cm/s,,,,,
Cc1cc(OCCCc2c3n(c4c(-c5c(C)nn(C)c5C)c(Cl)ccc24)CCCN(c2cn(C)c4ccc(C(=O)O)cc24)C3=O)cc(C)c1Cl,,26 µM,0.3 µM,> 12.5 µM,0.56 µM,GI50 (NCI-H929 [3]): 0.28 µM and 0.33 µM
Cc1cc(OCCCc2c3n(c4c(-c5c(C)nn(C)c5C)cc(Cl)cc24)CCCN(c2cc(C(=O)O)c4ccn(C)c4c2)C3=O)cc(C)c1Cl,,,6 µM,7.7 µM,,GI50 (MV4-11): 6.2 µM; GI50 (cells [4]): 6.6 µM; Ki [5]: 0.094 µM; GI50 (cells [6]): 9.9 µM; GI50 (OPM-2): 5.7 µM
Cc1cc(OCCCc2c(C(=O)NCC(=O)O)[nH]c3ccccc23)cc(C)c1Cl,,,,,,Ki [5]: 0.62 µM
Cc1cc(OCCCc2c3n(c4c(-c5c(C)nn(C)c5C)c(Cl)ccc24)CCCN(c2cc(C(=O)O)c4ccn(C)c4c2)C3=O)cc(C)c1Cl,21 ×10⁻⁶ cm/s,19 µM,1.4 to 1.6 µM,11 to 11.5 µM,0.58 µM,GI50 (MV4-11): 0.77 µM; GI50 (cells [4]): 1.5 µM; GI50 (cells [6]): 3.2 µM; GI50 (OPM-2): 1.4 µM
Cc1cc(OCCCc2c(C(=O)Nc3ccc(C(=O)O)cc3)[nH]c3c(-c4c(C)nn(C)c4C)c(Cl)ccc23)cc(C)c1Cl,1.2 ×10⁻⁶ cm/s,,,,,
Cc1cc(OCCCc2c(C(=O)Nc3cc(C(=O)O)ccn3)[nH]c3c(-c4c(C)nn(C)c4C)c(Cl)ccc23)cc(C)c1Cl,< 3.3 ×10⁻⁶ cm/s,,,,,
Cc1cc(OCCCc2c(C(=O)NCc3cccc(C(=O)O)c3)[nH]c3c(-c4c(C)nn(C)c4C)c(Cl)ccc23)cc(C)c1Cl,< 7.6 ×10⁻⁶ cm/s,,,,,
Cc1cc(OCCCc2c3n(c4c(-c5c(C)nn(C)c5C)c(Cl)ccc24)CCCN(c2cccc4c(C(=O)O)cccc24)C3=O)cc(C)c1Cl,4.4 ×10⁻⁶ cm/s,11 µM,1 µM,5.7 µM,0.25 µM,
Cc1cc(OCCCc2c(C(=O)NCc3ccc(C(=O)O)o3)[nH]c3ccccc23)cc(C)c1Cl,,,,,,Ki [5]: 0.069 µM
COC(=O)CNC(=O)c1[nH]c2ccccc2c1CCCOc1cc(C)c(Cl)c(C)c1,,,,,,Ki [5]: 3.2 µM
Cc1cc(OCCCc2c(C(=O)Nc3ccc(C(=O)O)cn3)[nH]c3c(-c4c(C)nn(C)c4C)c(Cl)ccc23)cc(C)c1Cl,< 2.3 ×10⁻⁶ cm/s,,,,,
Cc1cc(OCCCc2c3n(c4c(-c5c(C)nn(C)c5C)c(Cl)ccc24)CCCN(c2cn(C)c4cc(C(=O)O)ccc24)C3=O)cc(C)c1Cl,,> 36 µM,0.33 µM,5.8 µM,0.53 µM,
Cc1cc(OCCCc2c3n(c4c(-c5c(C)nn(C)c5C)cc(Cl)cc24)CCCN(c2cc(C(=O)O)cc4c2ccn4C)C3=O)cc(C)c1Cl,,,10 µM,10 µM,,GI50 (MV4-11): 9.1 µM; GI50 (cells [4]): 7.7 µM; Ki [5]: 0.13 µM; GI50 (cells [6]): 12 µM; GI50 (OPM-2): 8.9 µM
Cc1cc(OCCCc2c3n(c4c(-c5c(C)nn(C)c5C)c(Cl)ccc24)CCCN(c2ccc(C(=O)O)c4ccn(C)c24)C3=O)cc(C)c1Cl,4.8 ×10⁻⁶ cm/s,> 36 µM,5.7 µM,> 12.5 µM,0.44 µM,
Cc1cc(OCCCc2c(C(=O)NCCC(=O)O)[nH]c3ccccc23)cc(C)c1Cl,,,,,,Ki [5]: 0.57 µM
Cc1cc(OCCCc2c3n(c4c(-c5c(C)nn(C)c5C)c(Cl)ccc24)CCCN(Cc2cccc(C(=O)O)c2)C3=O)cc(C)c1Cl,143 ×10⁻⁶ cm/s,,,,,
Cc1cc(OCCCc2c(C(=O)Nc3cccc(C(=O)O)n3)[nH]c3c(-c4c(C)nn(C)c4C)c(Cl)ccc23)cc(C)c1Cl,< 1.6 ×10⁻⁶ cm/s,,,,,
Cc1cc(OCCCc2c3n(c4c(-c5c(C)nn(C)c5C)c(Cl)ccc24)CCCN(c2ccc(C(=O)O)c4cccnc24)C3=O)cc(C)c1Cl,122 ×10⁻⁶ cm/s,> 36 µM,3.3 µM,6.2 µM,0.49 µM,
